Drawing on PubChem BioAssay (NCI), this text covers TGI and GI50 for 15 molecules.

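Where inhibition never reached the appropriate level, the endpoint shown equals the highest concentration tested. Otherwise, values were interpolated linearly from a five-concentration, 48-hour dose response in 96-well plates. GI50 = concentration required for 50% inhibition of growth. At the TGI there is no net growth.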

Some test systems named below: OVCAR-5 ovarian; MDA-MB-435; SF-539 CNS; U251 CNS; DU-145 prostate; RPMI-8226 leukemia; HCT-15 colon; SK-MEL-28 melanoma; SF-295 CNS; HCC-2998 colon.
What all share (test): inhibition of tumour cell growth, NCI panel, 48 h

For the molecule `Cc1nc(N)sc1N=Nc1cc(Cl)c([N+](=O)[O-])cc1Cl`, the TGI amounted to 84.6 µM in the assay with OVCAR-5 ovarian; 42.1 µM with MDA-MB-435; 41.8 µM in the assay with SF-539 CNS; 44.7 µM in the assay on U251 CNS; 32.5 µM with DU-145 prostate; 21.8 µM with RPMI-8226 leukemia. Also, the TGI is 79.3 µM in the assay on HCT-15 colon, 33.9 µM in the assay with SK-MEL-28 melanoma and 54.6 µM with SF-295 CNS.

Take `O=C1CCCC(=O)C1=C(O)CCCCCCCCCCc1ccccc1`: the TGI with OVCAR-5 ovarian was 74.6 µM; with SF-539 CNS, greater than 100 µM; in the assay on U251 CNS, greater than 100 µM; in the assay on RPMI-8226 leukemia, greater than 100 µM; in the assay on HCC-2998 colon it was greater than 100 µM; with SK-MEL-28 melanoma, greater than 100 µM. In addition, in the assay on SF-295 CNS, the TGI was greater than 100 µM.

For `CCOP(=O)(OCC)/C(C#N)=C/c1ccc[nH]1`, the TGI in the assay with OVCAR-5 ovarian, in the assay on SF-539 CNS, with U251 CNS, in the assay with RPMI-8226 leukemia, in the assay with HCT-15 colon and in the assay with SK-MEL-28 melanoma was greater than 100 µM in each case. Besides, the TGI with SF-295 CNS is greater than 100 µM.

For the molecule `Cn1cnc([N+](=O)[O-])c1Sc1nc2cccnc2s1`, the TGI in the assay on OVCAR-5 ovarian is greater than 100 µM; with SF-539 CNS, 42 µM; in the assay with U251 CNS, 65.8 µM; with RPMI-8226 leukemia it was 60.4 µM; in the assay with HCT-15 colon it was 24.8 µM; in the assay with HCC-2998 colon, 30.9 µM. The TGI in the assay with SK-MEL-28 melanoma was 30.8 µM; with SF-295 CNS it was greater than 100 µM.

`CN1C(=O)c2cc([N+](=O)[O-])ccc2[C@H]2C(=O)c3cc4c(cc3[C@H]21)OCO4`: the GI50 in the assay on OVCAR-5 ovarian was 0.299 µM; in the assay on MDA-MB-435, 0.167 µM; in the assay on SF-539 CNS, 0.041 µM; in the assay with U251 CNS it was 0.0191 µM; in the assay on DU-145 prostate, 0.0506 µM; in the assay with RPMI-8226 leukemia, 0.0435 µM. Also, the GI50 in the assay on HCT-15 colon was 0.19 µM; in the assay on SK-MEL-28 melanoma, 0.25 µM; in the assay on SF-295 CNS, less than 0.01 µM. Also, the TGI was 0.926 µM with OVCAR-5 ovarian; 2.72 µM in the assay with MDA-MB-435; 0.973 µM in the assay with SF-539 CNS; 0.162 µM with U251 CNS; 14.9 µM in the assay on DU-145 prostate; greater than 50 µM in the assay on HCT-15 colon. The TGI with SK-MEL-28 melanoma is greater than 32.4 µM; in the assay with SF-295 CNS, 1.01 µM.

Take `CCCC(=O)Nc1cc([N+](=O)[O-])c([N+](=O)[O-])cc1OC`: the TGI in the assay on OVCAR-5 ovarian is greater than 100 µM; with MDA-MB-435, 33.3 µM; with SF-539 CNS it was 37.8 µM; in the assay with U251 CNS, 29.8 µM; in the assay with DU-145 prostate, 31.6 µM; in the assay on RPMI-8226 leukemia, 68.4 µM. Also, the TGI in the assay with HCT-15 colon is greater than 100 µM; with SK-MEL-28 melanoma, 32.2 µM; in the assay with SF-295 CNS, 21.7 µM.

Regarding `CCOC(=O)N[C@H]1CCc2cc(O)c(OC)c(OC)c2-c2ccc(SC)c(=O)cc21`, the TGI in the assay with OVCAR-5 ovarian is greater than 100 µM; in the assay on SF-539 CNS, 0.044 µM; with U251 CNS, greater than 6.92 µM; with RPMI-8226 leukemia, greater than 72.6 µM; with HCT-15 colon it was greater than 100 µM; in the assay with HCC-2998 colon, greater than 100 µM. In addition, the TGI with SK-MEL-28 melanoma is greater than 100 µM; in the assay on SF-295 CNS, 0.0995 µM.

Take `CC1CC(=O)C(CC(=O)O)C1C(C(=O)C(=O)Nc1c(C#N)cccc1[N+](=O)[O-])[N+](=O)[O-]` (centres undefined): the TGI in the assay on OVCAR-5 ovarian, in the assay with SF-539 CNS, with U251 CNS, in the assay on RPMI-8226 leukemia, in the assay with HCT-15 colon and in the assay with HCC-2998 colon was greater than 100 µM each time. For the same molecule, the TGI in the assay with SK-MEL-28 melanoma and in the assay on SF-295 CNS was greater than 100 µM throughout.

Regarding `CCC[CH2][Sn]1([CH2]CCC)[O]C(=O)c2cccc(OC)c2[O]1`, the GI50 with OVCAR-5 ovarian is 1.55 µM; in the assay on SF-539 CNS it was 0.387 µM; with U251 CNS, 0.237 µM; with HCT-15 colon, 0.698 µM; in the assay with HCC-2998 colon, 0.99 µM; in the assay with SK-MEL-28 melanoma it was 0.234 µM. The GI50 in the assay on SF-295 CNS is 1.08 µM. For the same molecule, the TGI is 2.9 µM in the assay on OVCAR-5 ovarian; 1.42 µM in the assay on SF-539 CNS; 0.751 µM in the assay with U251 CNS; 2 µM in the assay on HCT-15 colon; 2.15 µM with HCC-2998 colon; 0.747 µM in the assay with SK-MEL-28 melanoma. In addition, the TGI in the assay on SF-295 CNS was found to be 2.27 µM.

Consider `CCN(CC)CCC(=O)N1CCc2c([nH]c3ccccc23)C1c1cccnc1` (centres undefined), for which the TGI in the assay on OVCAR-5 ovarian, with SF-539 CNS, with U251 CNS, with RPMI-8226 leukemia, with HCT-15 colon and in the assay with HCC-2998 colon was greater than 100 µM throughout. The TGI in the assay on SK-MEL-28 melanoma and in the assay on SF-295 CNS was greater than 100 µM throughout.

As for `O=C(Nc1ccc([N+](=O)[O-])cc1C(=O)O)c1ccc([N+](=O)[O-])cc1`, the TGI is greater than 100 µM with OVCAR-5 ovarian; greater than 100 µM in the assay on SF-539 CNS; greater than 100 µM in the assay on U251 CNS; 57.7 µM with RPMI-8226 leukemia; greater than 100 µM in the assay on HCT-15 colon; greater than 100 µM with HCC-2998 colon. Further, the TGI in the assay with SK-MEL-28 melanoma and with SF-295 CNS was greater than 100 µM in each case.

Turning to `N#CCc1ccc(/C(C#N)=C2/OC(=N)C(c3ccc(CC#N)cc3)C2=O)cc1` (centres undefined), the TGI with OVCAR-5 ovarian, with SF-539 CNS, in the assay on RPMI-8226 leukemia, in the assay on HCT-15 colon, with SK-MEL-28 melanoma and in the assay on SF-295 CNS was greater than 100 µM throughout.

Take `N#CCCN(CCC#N)c1ccc(/C=N\c2nc(-c3ccccc3)cs2)cc1`: the TGI in the assay with OVCAR-5 ovarian, in the assay on SF-539 CNS, in the assay with RPMI-8226 leukemia, with HCT-15 colon, in the assay on SK-MEL-28 melanoma and in the assay with SF-295 CNS was greater than 100 µM each time.

For the molecule `Cn1cnc([N+](=O)[O-])c1SC1=NCCS1`, the TGI in the assay with OVCAR-5 ovarian, in the assay on SF-539 CNS, in the assay with U251 CNS, in the assay with RPMI-8226 leukemia, in the assay on HCC-2998 colon and in the assay on SK-MEL-28 melanoma was greater than 100 µM throughout. In the assay on SF-295 CNS, the TGI was greater than 100 µM.

On to `Cc1ccc(-c2nc3c(C(=O)NCCN(C)C)cccc3[nH]2)cc1`, for which the TGI in the assay on OVCAR-5 ovarian turned out to be 45.2 µM; in the assay with SF-539 CNS, 23 µM; in the assay on U251 CNS, 61.1 µM; with HCT-15 colon, 58.2 µM; in the assay on HCC-2998 colon, 29.4 µM; in the assay on SK-MEL-28 melanoma, 32.4 µM. Moreover, the TGI in the assay with SF-295 CNS came to 53.7 µM.
